According to PMC9030932, “Development of Dibenzothiazepine Derivatives as Multifunctional Compounds for Neuropathic Pain” (Pharmaceuticals, 2022):
Like-named read-outs stand apart in the source and are kept apart here. Marks after values point to notes of the source that are not given here.

What was measured:
Assay type in all cases: cell-based
[1] = target: human serotonin transporter (hSERT) (Homo sapiens, UniProt P31645); assay: Neurotransmitter transporter uptake assay, HEK-hSERT; conditions: for inhibition at 10 µM: read-out: % Inhibition at 10 μM hSERT
Chain of human serotonin transporter (hSERT) (P31645 whole entry): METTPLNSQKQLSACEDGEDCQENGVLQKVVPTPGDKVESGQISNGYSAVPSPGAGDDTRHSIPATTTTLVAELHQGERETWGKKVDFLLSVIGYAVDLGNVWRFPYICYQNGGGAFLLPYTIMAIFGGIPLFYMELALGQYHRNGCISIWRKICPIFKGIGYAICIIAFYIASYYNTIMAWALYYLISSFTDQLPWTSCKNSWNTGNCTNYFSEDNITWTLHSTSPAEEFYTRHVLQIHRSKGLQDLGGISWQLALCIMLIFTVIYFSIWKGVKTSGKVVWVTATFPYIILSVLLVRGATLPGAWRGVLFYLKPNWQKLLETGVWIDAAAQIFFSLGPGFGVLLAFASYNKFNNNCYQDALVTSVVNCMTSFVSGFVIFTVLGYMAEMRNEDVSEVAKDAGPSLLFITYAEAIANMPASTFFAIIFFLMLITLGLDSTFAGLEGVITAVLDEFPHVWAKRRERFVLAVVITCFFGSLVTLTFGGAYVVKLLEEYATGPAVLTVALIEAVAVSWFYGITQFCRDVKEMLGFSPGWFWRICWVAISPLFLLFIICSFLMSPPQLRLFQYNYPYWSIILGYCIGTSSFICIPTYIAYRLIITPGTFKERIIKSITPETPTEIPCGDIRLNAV

[2] = target: human norepinephrine transporter (hNET) (Homo sapiens, UniProt P23975); assay: Neurotransmitter transporter uptake assay, HEK-hNET; conditions: read-out: % Inhibition at 10 μM hNET
Chain of human norepinephrine transporter (hNET) (P23975 whole entry): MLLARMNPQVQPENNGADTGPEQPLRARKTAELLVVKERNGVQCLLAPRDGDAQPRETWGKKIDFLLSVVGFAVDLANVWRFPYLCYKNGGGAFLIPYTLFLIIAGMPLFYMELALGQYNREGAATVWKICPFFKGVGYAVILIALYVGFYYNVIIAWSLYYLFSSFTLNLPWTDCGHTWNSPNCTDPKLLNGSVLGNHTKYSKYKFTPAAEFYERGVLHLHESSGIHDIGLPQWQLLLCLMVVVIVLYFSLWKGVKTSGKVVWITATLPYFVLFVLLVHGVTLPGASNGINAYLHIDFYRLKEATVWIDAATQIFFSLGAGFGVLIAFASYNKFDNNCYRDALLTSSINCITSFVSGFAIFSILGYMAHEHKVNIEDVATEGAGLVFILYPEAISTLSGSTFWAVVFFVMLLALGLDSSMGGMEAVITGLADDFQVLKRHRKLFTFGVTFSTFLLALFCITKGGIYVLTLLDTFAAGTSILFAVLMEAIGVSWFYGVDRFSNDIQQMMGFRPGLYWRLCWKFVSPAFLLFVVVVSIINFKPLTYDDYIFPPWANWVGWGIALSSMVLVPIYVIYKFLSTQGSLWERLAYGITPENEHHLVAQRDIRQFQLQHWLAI

[3] = target: human dopamine transporter (hDAT) (Homo sapiens, UniProt Q01959); assay: Neurotransmitter transporter uptake assay, HEK-hDAT; conditions: for inhibition at 10 µM: read-out: % Inhibition at 10 μM hDAT
Chain of human dopamine transporter (hDAT) (Q01959 whole entry): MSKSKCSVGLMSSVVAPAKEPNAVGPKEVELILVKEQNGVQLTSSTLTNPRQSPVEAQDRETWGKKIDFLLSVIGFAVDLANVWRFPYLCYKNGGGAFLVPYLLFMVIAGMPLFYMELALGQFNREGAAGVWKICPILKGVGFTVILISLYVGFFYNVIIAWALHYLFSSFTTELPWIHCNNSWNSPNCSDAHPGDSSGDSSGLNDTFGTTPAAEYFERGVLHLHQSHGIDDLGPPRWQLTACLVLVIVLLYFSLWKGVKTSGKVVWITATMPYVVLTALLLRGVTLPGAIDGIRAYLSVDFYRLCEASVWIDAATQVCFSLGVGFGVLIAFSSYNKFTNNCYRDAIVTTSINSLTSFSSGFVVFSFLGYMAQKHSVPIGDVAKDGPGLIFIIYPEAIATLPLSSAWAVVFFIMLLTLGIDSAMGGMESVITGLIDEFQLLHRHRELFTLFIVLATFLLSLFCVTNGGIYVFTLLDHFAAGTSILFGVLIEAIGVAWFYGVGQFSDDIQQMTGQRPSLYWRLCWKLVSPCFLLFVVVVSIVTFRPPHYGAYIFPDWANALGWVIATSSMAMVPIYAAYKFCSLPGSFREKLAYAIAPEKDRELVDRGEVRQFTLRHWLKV

[4] = target: T1, human κ-opioid receptor (OPRK1) (Homo sapiens, UniProt P41145); assay: Intracellular calcium mobilization (FLIPR Tetra), HEK-hKOR agonism; conditions: read-out: % Stimulation at 10 μM, OPRK1 Agonism against DynorphinA (370 nM)
T1 construct: host or cells: HEK293 (constitutive expression)
T1 sequence (P41145 whole entry): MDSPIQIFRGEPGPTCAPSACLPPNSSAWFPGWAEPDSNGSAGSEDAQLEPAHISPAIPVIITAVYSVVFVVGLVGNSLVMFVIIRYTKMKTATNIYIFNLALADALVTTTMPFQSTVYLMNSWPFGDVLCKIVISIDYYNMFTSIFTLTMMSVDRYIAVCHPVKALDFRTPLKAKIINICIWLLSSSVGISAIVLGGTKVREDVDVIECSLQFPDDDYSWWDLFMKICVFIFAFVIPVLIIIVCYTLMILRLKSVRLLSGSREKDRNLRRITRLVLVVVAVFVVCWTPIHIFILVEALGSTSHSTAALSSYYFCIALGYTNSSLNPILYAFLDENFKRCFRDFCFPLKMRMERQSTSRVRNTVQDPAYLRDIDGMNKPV
Description: Intracellular calcium mobilization was measured by using FLIPR Tetra System (Molecular Devices, Sunnyvale, CA, USA) in accordance with manufacturer’s instruction. […] Subsequently, the plate was transferred to the FLIPR tetra system for treating 50 μL of the 5× compounds diluted in loading buffer and reading intracellular calcium mobilization. The final concentration of DMSO was 0.1%. […] A dose response curve was generated with the changes in Relative Fluorescence Units (∆RFU) versus Log10 dose.
Experimental details for Biology
Cell culture. HEK293 cells stably expressing human DA transporter (HEK-hDAT), human NE transporter (HEK-hNET) and human serotonin transporter (HEK-hSERT) were kindly provided by Professor Bryan Roth (University of North Carolina at Chapel Hill). And HEK293 cells constitutively expressing human κ- or μ- opioid receptor (HEK-hKOR_NM000912 or HEK-hMOR_NM000914) were constructed by Professor Ki Duk Park (in Korea Institute of Science […]
Europins DiscoveRx (Fremont, CA, USA). Cells were mainta ined in Dulbecco's modified Eagle's medium (HyClone, Logan, UT, USA) supplemented with 10%(v/v) fetal bovine serum (FBS, HyClone, Logan, UT, USA), penicillin (100 U/mL), and streptomycin (100 μg/mL) in the […]
for HEK-hDAT, HEK-hNET, HEK-hSERT, HEK-hKOR and HEK-hMOR respectively) in a humidified 5% CO2 incubator at 37 °C. In case of both HEK-hKOR and HEK-hMOR, cells were additionally maintained in 0.2 mg/mL hygromycin B, 1 μg/mL puromycin B, 1× non-essential amino acids. The cells were subcultured every 3-4 days. […]

[5] = target: T2, human μ-opioid receptor (OPRM1) (Homo sapiens, UniProt P35372); assay: Intracellular calcium mobilization (FLIPR Tetra), HEK-hMOR agonism; conditions: for % Stimulation at 10 μM, OPRM1 Agonism against DAMGO (3.9 μM): HEK-hMOR calcium mobilization, normalized to Emax of DAMGO at 3.9 μM
T2 construct: host or cells: HEK293 (constitutive expression)
T2 sequence (P35372 whole entry): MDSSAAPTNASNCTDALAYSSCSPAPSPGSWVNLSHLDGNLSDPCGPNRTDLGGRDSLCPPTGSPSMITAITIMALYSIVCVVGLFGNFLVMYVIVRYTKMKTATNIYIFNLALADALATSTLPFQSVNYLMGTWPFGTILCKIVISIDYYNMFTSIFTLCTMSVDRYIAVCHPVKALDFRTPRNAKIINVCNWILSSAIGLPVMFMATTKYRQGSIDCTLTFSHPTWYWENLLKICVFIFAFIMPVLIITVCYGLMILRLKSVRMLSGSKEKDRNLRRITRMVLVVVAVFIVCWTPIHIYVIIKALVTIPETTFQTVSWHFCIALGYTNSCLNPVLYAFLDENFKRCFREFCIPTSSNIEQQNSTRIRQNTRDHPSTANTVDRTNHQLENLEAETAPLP

hOPRM1 receptor = target: T3, hOPRM1 receptor (Homo sapiens, UniProt P35372); assay: PathHunter CHO-K1 OPRM1 β-arrestin recruitment assay
T3 construct: host or cells: CHO-K1
T3 sequence (P35372 whole entry): as above

[6] = 10 μM, HEK-hSERT, mean ± SEM, n = 3–6
[7] = 10 μM, HEK-hNET, mean ± SEM, n = 3–6

SMILES | inhibition at 10 µM [1, 6] | inhibition at 10 µM [2, 7] | inhibition at 10 µM [3] | activation at 10 µM [4] | % Stimulation at 10 μM, OPRM1 Agonism against DAMGO (3.9 μM) [5] | EC50 (hOPRM1 receptor) | other results
CN1c2ccccc2C(NCCc2c[nH]c3ccc(O)cc23)c2ccc(Cl)cc2S1(=O)=O (centres unmarked) [Compound 7, 3-chloro-11-((2-(5-hydroxy-1H-indol-3-yl)ethyl)amino)-6-methyl-6,11-dihydrodibenzo[c,f][1,2]thiazepine 5,5-dioxide] | 37.5 ± 2.5% | 30.8 ± 2.8% | 36.2 ± 2.7% | – | – | – | –
CN1c2ccccc2C(NCC(=O)NCCc2c[nH]c3ccc(O)cc23)c2ccc(Cl)cc2S1(=O)=O (centres unmarked) [Compound 11a, 2-((3-chloro-6-methyl-5,5-dioxido-6,11-dihydrodibenzo[c,f][1,2]thiazepin-11-yl)amino)-N-(2-(5-hydroxy-1H-indol-3-yl)ethyl)acetamide] | 50.9 ± 4.1% | 13.2 ± 2.3% | 33.2 ± 6.5% | – | – | – | –
CN1c2ccccc2C(NCCC(=O)NCCc2c[nH]c3ccc(O)cc23)c2ccc(Cl)cc2S1(=O)=O (centres unmarked) [Compound 11b, 3-((3-chloro-6-methyl-5,5-dioxido-6,11-dihydrodibenzo[c,f][1,2]thiazepin-11-yl)amino)-N-(2-(5-hydroxy-1H-indol-3-yl)ethyl)propanamide] | – | 54.8 ± 3.7% | 44.9 ± 4.2% | – | – | – | IC50 [1]: 4.08 ± 0.032 µM
CN1c2ccccc2C(NCCCC(=O)NCCc2c[nH]c3ccc(O)cc23)c2ccc(Cl)cc2S1(=O)=O (centres unmarked) [Compound 11c, 4-((3-chloro-6-methyl-5,5-dioxido-6,11-dihydrodibenzo[c,f][1,2]thiazepin-11-yl)amino)-N-(2-(5-hydroxy-1H-indol-3-yl)ethyl)butanamide] | 35.5 ± 3.7% | 24.3 ± 7.4% | 41.3 ± 5.7% | – | – | – | –
CN1c2ccccc2C(NCCCCC(=O)NCCc2c[nH]c3ccc(O)cc23)c2ccc(Cl)cc2S1(=O)=O (centres unmarked) [Compound 11d, 5-((3-chloro-6-methyl-5,5-dioxido-6,11-dihydrodibenzo[c,f][1,2]thiazepin-11-yl)amino)-N-(2-(5-hydroxy-1H-indol-3-yl)ethyl)pentanamide] | – | 21.1 ± 4.7% | 41.3 ± 7.6% | – | – | – | IC50 ([1]; HEK-hSERT, neurotransmitter uptake, mean ± SEM, n = 3–6, read-out: IC50 hSERT): 10.1 ± 0.5 µM
CN1c2ccccc2C(NCCCCCC(=O)NCCc2c[nH]c3ccc(O)cc23)c2ccc(Cl)cc2S1(=O)=O (centres unmarked) [Compound 11e, 6-((3-chloro-6-methyl-5,5-dioxido-6,11-dihydrodibenzo[c,f][1,2]thiazepin-11-yl)amino)-N-(2-(5-hydroxy-1H-indol-3-yl)ethyl)hexanamide] | – | 30.1 ± 5% | 40.2 ± 0.12% | – | – | – | IC50 [1]: 6.74 ± 0.38 µM
COc1ccc2[nH]cc(CCNC(=O)CCCCCCNC3c4ccccc4N(C)S(=O)(=O)c4cc(Cl)ccc43)c2c1 (centres unmarked) [Compound 13, 7-((3-chloro-6-methyl-5,5-dioxido-6,11-dihydrodibenzo[c,f][1,2]thiazepin-11-yl)amino)-N-(2-(5-methoxy-1H-indol-3-yl)ethyl)heptanamide] | 39.7 ± 6.3% | 23.7 ± 7.5% | 25.6 ± 9.7% | – | – | – | –
CN1c2ccccc2C(NCCCCCCC(=O)NCCc2c[nH]c3ccccc23)c2ccc(Cl)cc2S1(=O)=O (centres unmarked) [Compound 14, N-(2-(1H-indol-3-yl)ethyl)-7-((3-chloro-6-methyl-5,5-dioxido-6,11-dihydrodibenzo[c,f][1,2]thiazepin-11-yl)amino)heptanamide] | 50.3 ± 3.4% | 65.2 ± 3.4% | – | < 10% | 62.3 ± 2.9% ^b | 0.113 ± 0.003 µM | IC50 [3]: 3.81 ± 1.4 µM
CN1c2ccccc2C(NCCCCCCCC=CCc2c[nH]c3ccccc23)c2ccc(Cl)cc2S1(=O)=O (centres unmarked) [Compound 21] | 26.3 ± 6.4% | 5.64 ± 4.5% | 8.92 ± 6.1% | < 10% | <10% ^b | > 10 µM | –
CN1c2ccccc2C(NCCCCCCCCCCc2c[nH]c3ccccc23)c2ccc(Cl)cc2S1(=O)=O (centres unmarked) [Compound 22] | 17.9 ± 7.5% | 5.56 ± 0.07% | 1.95 ± 0.06% | < 10% | 11.8 ± 1.9% ^b | > 10 µM | –
CC(C)C[C@H](CNC(=O)CCCCCCNC1c2ccccc2N(C)S(=O)(=O)c2cc(Cl)ccc21)CC(=O)O (stereo partly drawn) [Compound 25, (3S)-3-((7-((3-chloro-6-methyl-5,5-dioxido-6,11-dihydrodibenzo[c,f][1,2]thiazepin-11-yl)amino)heptanamido)methyl)-5-methylhexanoic acid] | 11.3 ± 2.5% | 21 ± 2.6% | 17.6 ± 8.9% | < 10% | – | > 10 µM | EC50 [5]: 2.41 ± 0.144 µM
CN(CCCCCCCNC1c2ccccc2N(C)S(=O)(=O)c2cc(Cl)ccc21)CCC(Oc1ccc(C(F)(F)F)cc1)c1ccccc1 (centres unmarked) [Compound 26, 3-chloro-6-methyl-11-((7-(methyl(3-phenyl-3-(4-(trifluoromethyl)phenoxy)propyl)amino)heptyl)amino)-6,11-dihydrodibenzo[c,f][1,2]thiazepine 5,5-dioxide] | – | 7.07 ± 4.1% | 23.6 ± 12% | < 10% | <10% ^b | > 10 µM | IC50 [1]: 2.18 ± 0.37 µM
CN1c2ccccc2C(NCCCCCCCNCCc2c[nH]c3ccc(C#N)cc23)c2ccc(Cl)cc2S1(=O)=O (centres unmarked) [Compound 27, 3-(2-((7-((3-chloro-6-methyl-5,5-dioxido-6,11-dihydrodibenzo[c,f][1,2]thiazepin-11-yl)amino)heptyl)amino)ethyl)-1H-indole-5-carbonitrile] | – | 63.6 ± 4.4% | – | < 10% | 65.9 ± 2.8% ^b | 3.28 ± 0.642 µM | IC50 [1]: 0.462 ± 0.034 µM; IC50 [3]: 4.98 ± 2.1 µM
Fc1ccc(C(OCCN2CCN(CCCc3ccccc3)CC2)c2ccc(F)cc2)cc1 [GBR12909, reference compound] | – | – | 85.9 ± 0.27% | – | – | – | inhibition at 10 µM [1]: 70.6 ± 1.3%; inhibition at 10 µM [2]: 79.1 ± 0.71%
CNCCC(Oc1ccccc1OC)c1ccccc1 (centres unmarked) [Nisoxetine, reference compound] | – | – | 79.7 ± 1.4% | – | – | – | inhibition at 10 µM [1]: 79.8 ± 0.32%
